Measurements published in patent US12037344B2, “NLRP3 modulators” (INNATE TUMOR IMMUNITY, INC., priority 2018, dated 2024).

Tests used:
[1] = target: T1, TLR8 (Homo sapiens, UniProt Q9NR97); assay: In vitro human TLR8 binding reporter assay (HEK-Blue, NF-kB/AP1-inducible SEAP); assay type: cell-based; settings: activity range class, read-out: TLR8 Agonist EC50
T1 construct: human HEK-Blue cells co-expressing a TLR7 or TLR8 gene
T1 sequence (Q9NR97 27-1041): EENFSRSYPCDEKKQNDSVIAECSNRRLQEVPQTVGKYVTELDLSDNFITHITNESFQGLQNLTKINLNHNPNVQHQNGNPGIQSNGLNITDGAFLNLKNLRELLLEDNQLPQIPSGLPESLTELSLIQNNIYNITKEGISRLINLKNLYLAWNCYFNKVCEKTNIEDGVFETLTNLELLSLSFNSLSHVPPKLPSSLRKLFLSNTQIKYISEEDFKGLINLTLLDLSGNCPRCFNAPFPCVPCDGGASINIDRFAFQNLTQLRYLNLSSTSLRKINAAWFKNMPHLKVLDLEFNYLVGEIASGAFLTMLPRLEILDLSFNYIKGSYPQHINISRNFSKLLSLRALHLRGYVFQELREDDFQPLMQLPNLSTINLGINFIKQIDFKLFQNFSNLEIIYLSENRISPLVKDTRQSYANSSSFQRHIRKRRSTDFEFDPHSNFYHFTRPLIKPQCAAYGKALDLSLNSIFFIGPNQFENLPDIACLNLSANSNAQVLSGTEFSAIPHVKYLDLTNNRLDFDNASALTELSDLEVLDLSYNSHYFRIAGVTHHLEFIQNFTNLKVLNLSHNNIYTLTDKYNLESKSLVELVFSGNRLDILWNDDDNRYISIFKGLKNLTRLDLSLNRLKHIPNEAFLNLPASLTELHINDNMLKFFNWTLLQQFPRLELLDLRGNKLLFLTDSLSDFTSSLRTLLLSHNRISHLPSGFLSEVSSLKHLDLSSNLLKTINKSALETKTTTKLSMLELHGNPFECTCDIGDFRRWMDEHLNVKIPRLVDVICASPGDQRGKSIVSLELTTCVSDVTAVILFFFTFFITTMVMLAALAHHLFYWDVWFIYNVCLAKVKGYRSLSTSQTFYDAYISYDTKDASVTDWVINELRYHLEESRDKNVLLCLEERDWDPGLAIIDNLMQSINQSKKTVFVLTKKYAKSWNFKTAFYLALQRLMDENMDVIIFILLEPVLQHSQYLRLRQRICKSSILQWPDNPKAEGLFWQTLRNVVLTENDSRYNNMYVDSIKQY
Summary of the method: (§1)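 EC50s come from NF-kB/AP1-driven SEAP secretion in HEK-Blue cells expressing TLR7 or TLR8, measured with Quanti-Blue after an 18 h compound incubation. Maximal response is defined by a 50 μM reference standard.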

[2] = tested on: THP-1 cells; assay: Measurement of IL-1β production, hTRF protocol (second alternative procedure), THP-1 cells; assay type: cell-based, human; settings: Homo sapiens, THP-1, IL-1β production, human; read-out: NLRP3 hILIB EC50
Summary of the method: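 THP-1 cells differentiated overnight with 50 ng/ml PMA, then plated at 50,000 cells/well in RPMI with 2% FBS onto serial compound dilutions (top final concentration 10 μM) for 2 hours at 37° C. Supernatant IL-1β measured by hTRF (antibodies at 1:40, overnight at 4° C), read at 665/615 nm against a standard curve.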

[3] = target: T2, TLR7 (Homo sapiens, UniProt Q9NYK1); assay: In vitro human TLR7 binding reporter assay (HEK-Blue, NF-kB/AP1-inducible SEAP); assay type: cell-based; settings: activity range class, read-out: TLR7 Agonist EC50
T2 construct: human HEK-Blue cells co-expressing a TLR7 or TLR8 gene
T2 sequence (Q9NYK1 27-1049): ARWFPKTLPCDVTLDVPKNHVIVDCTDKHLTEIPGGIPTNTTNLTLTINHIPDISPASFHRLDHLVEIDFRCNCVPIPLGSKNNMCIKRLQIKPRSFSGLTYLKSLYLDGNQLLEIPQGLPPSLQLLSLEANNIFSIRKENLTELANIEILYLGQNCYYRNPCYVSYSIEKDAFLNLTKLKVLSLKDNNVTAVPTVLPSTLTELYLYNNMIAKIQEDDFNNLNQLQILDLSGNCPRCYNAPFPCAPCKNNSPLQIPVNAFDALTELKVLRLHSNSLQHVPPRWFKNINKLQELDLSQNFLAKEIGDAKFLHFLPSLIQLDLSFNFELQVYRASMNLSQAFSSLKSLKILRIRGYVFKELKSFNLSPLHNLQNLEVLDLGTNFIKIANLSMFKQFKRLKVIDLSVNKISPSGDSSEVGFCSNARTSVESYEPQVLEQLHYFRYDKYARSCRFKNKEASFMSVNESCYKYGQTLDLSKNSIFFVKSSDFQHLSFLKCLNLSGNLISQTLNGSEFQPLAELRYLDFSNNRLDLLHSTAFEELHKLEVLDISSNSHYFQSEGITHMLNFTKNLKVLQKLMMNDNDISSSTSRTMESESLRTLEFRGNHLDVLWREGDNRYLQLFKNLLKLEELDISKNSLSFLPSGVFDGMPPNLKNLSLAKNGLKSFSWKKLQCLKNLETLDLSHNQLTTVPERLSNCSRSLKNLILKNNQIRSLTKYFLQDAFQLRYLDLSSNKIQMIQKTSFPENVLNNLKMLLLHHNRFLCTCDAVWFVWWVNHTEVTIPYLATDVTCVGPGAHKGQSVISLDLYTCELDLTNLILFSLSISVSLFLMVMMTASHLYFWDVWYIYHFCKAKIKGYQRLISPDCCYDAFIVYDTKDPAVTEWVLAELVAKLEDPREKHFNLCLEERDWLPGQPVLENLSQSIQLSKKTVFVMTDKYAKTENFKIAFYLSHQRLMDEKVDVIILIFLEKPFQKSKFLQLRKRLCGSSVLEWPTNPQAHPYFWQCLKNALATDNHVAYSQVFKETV
Summary of the method: as §1

Row | SMILES | EC50 [1] [µM] | EC50 [2] [µM] | EC50 [3] [µM]
1 | N#CC1(C(=O)NCCn2cc3c(n2)c(N)nc2cc(-c4cc[nH]n4)ccc23)CC1 [Example 182] | > 100 | 1.27 | > 100
2 | COCCn1cc2c(n1)c(N)nc1cc(-c3ccn[nH]3)ccc12 [Example 185] | > 100 | 0.21 | 1 to 20
3 | CCCCn1cc2c(n1)c(N)nc1cc(-c3ccn[nH]3)ccc12 [Example 186] | > 100 | 0.21 | 1 to 20
4 | NC(=O)CCn1cc2c(n1)c(N)nc1cc(-c3ccn[nH]3)ccc12 [Example 189] | > 100 | 0.59 | > 100
5 | CCOCCn1cc2c(n1)c(N)nc1cc(-c3ccn[nH]3)ccc12 [Example 190] | > 100 | 0.22 | > 100
6 | Nc1nc2cc(-c3cc[nH]n3)ccc2c2cn(CCNc3ccccn3)nc12 [Example 194, 7-(1H-pyrazol-3-yl)-2-(2-(pyridin-2-ylamino)ethyl)-2H-pyrazolo[3,4-c]quinolin-4-amine] | > 100 | 0.22 | > 100
7 | Nc1nc2cc(-c3cc[nH]n3)ccc2c2nn(CCNC(=O)c3cc(Cl)ccn3)cc12 [Example 197] | > 100 | 0.25 | > 100
8 | Cc1nc(C(=O)NCCn2cc3c(N)nc4cc(-c5cc[nH]n5)ccc4c3n2)co1 [Example 198] | > 100 | 0.11 | > 100
9 | Nc1nc2cc(-c3cc[nH]n3)ccc2c2nn(CCNC(=O)C3CCCCO3)cc12 (stereo not drawn) [Example 199] | > 100 | 4.44 | > 100
10 | Nc1nc2cc(-c3cc[nH]n3)ccc2c2nn(CCNC(=O)c3ccccc3)cc12 [Example 200] | > 100 | 0.57 | > 100
11 | Nc1nc2cc(-c3cc[nH]n3)ccc2c2nn(CCNC(=O)c3cnccn3)cc12 [Example 201] | > 100 | 0.48 | > 100
12 | Nc1nc2cc(-c3cc[nH]n3)ccc2c2nn(CCN3Cc4ccc(F)cc4C3=O)cc12 [Example 205, 2-(2-(4-amino-7-(1H-pyrazol-3-yl)-2H-pyrazolo[4,3-c]quinolin-2-yl)ethyl)-6-fluoroisoindolin-1-one] | > 100 | 2.04 | > 100
13 | COCCn1cc2c(N)nc3cc(-c4cc[nH]n4)ccc3c2n1 [Example 207, 2-(2-methoxyethyl)-7-(1H-pyrazol-3-yl)-2H-pyrazolo[4,3-c]quinolin-4-amine] | > 100 | 0.14 | > 100
14 | COCCn1ncc2c(N)nc3cc(-c4cc[nH]n4)ccc3c21 [Example 208, 1-(2-methoxyethyl)-7-(1H-pyrazol-3-yl)-1H-pyrazolo[4,3-c]quinolin-4-amine] | > 100 | 0.49 | > 100
15 | Nc1nc2cc(-c3cc[nH]n3)ccc2c2nn(CCO)cc12 [Example 209, 2-(4-amino-7-(1H-pyrazol-3-yl)-2H-pyrazolo[4,3-c]quinolin-2-yl)ethan-1-ol] | > 100 | 0.19 | > 100
16 | CS(=O)(=O)CCCn1cc2c(N)nc3cc(-c4cc[nH]n4)ccc3c2n1 [Example 211] | > 100 | 0.63 | > 100
17 | CS(=O)(=O)CCCn1ncc2c(N)nc3cc(-c4cc[nH]n4)ccc3c21 [Example 212] | > 100 | 4.37 | > 100
18 | Nc1nc2cc(-c3cc[nH]n3)ccc2c2c1cnn2CCCN1CCOCC1 [Example 214] | > 100 | 4.55 | > 100

Further lines, results first:

Row | EC50 [1] [µM] | EC50 [2] [µM] | EC50 [3] [µM] | SMILES
19 | > 100 | 1.44 | > 100 | Nc1nc2cc(-c3cc[nH]n3)ccc2c2cn(CCNC(=O)COCC(F)(F)F)nc12 [Example 178]
20 | > 100 | 6.53 | > 100 | Nc1nc2cc(-c3cc[nH]n3)ccc2c2cn(CCNC(=O)CC(F)(F)F)nc12 [Example 181]
21 | 20 to 100 | 0.11 | > 100 | Cc1nc(C(=O)NCCn2cc3c(n2)c(N)nc2cc(-n4cccn4)ccc23)co1 [Example 183]
22 | > 100 | 0.22 | > 100 | CCCn1cc2c(n1)c(N)nc1cc(-c3ccn[nH]3)ccc12 [Example 187]
23 | > 100 | 0.21 | > 100 | CCn1cc2c(n1)c(N)nc1cc(-c3ccn[nH]3)ccc12 [Example 188]
24 | > 100 | 7.19 | > 100 | NC(=O)Cn1cc2c(n1)c(N)nc1cc(-c3ccn[nH]3)ccc12 [Example 191]
25 | > 100 | 0.09 | > 100 | Nc1nc2cc(-c3ccn[nH]3)ccc2c2cn(CC(F)F)nc12 [Example 192]
26 | 20 to 100 | 0.24 | 20 to 100 | Nc1nc2cc(-c3ccn[nH]3)ccc2c2cn(CCF)nc12 [Example 193]
27 | 20 to 100 | 2.15 | > 100 | Nc1nc2cc(-c3cc[nH]n3)c(Cl)cc2c2cn(CCNC(=O)c3ccc(F)cn3)nc12 [Example 195, N-(2-(4-amino-8-chloro-7-(1H-pyrazol-3-yl)-2H-pyrazolo[3,4-c]quinolin-2-yl)ethyl)-5-fluoropicolinamide]
28 | > 100 | 0.18 | > 100 | Nc1nc2cc(-c3cc[nH]n3)ccc2c2nn(CCNC(=O)c3ccc(F)cn3)cc12 [Example 196]
29 | > 100 | 0.66 | > 100 | COc1ccc(C(=O)NCCn2cc3c(N)nc4cc(-c5cc[nH]n5)ccc4c3n2)nc1 [Example 202]
30 | > 100 | 3.49 | > 100 | CC(C)(F)C(=O)NCCn1cc2c(N)nc3cc(-c4cc[nH]n4)ccc3c2n1 [Example 203]
31 | > 100 | 2.6 | > 100 | Nc1nc2cc(-c3cc[nH]n3)ccc2c2nn(CCNC(=O)c3cccnc3)cc12 [Example 204]
32 | > 100 | 0.26 | > 100 | CS(=O)(=O)NCCn1cc2c(N)nc3cc(-c4cc[nH]n4)ccc3c2n1 [Example 206, N-(2-(4-amino-7-(1H-pyrazol-3-yl)-2H-pyrazolo[4,3-c]quinolin-2-yl)ethyl)methanesulfonamide]
33 | > 100 | 3.21 | > 100 | Nc1nc2cc(-c3cc[nH]n3)ccc2c2nn(CCCN3CCOCC3)cc12 [Example 213]
